Measurements: US10131652B2, “Pyrimidinyloxy benzene derivatives as herbicides” (E. I. DU PONT DE NEMOURS AND COMPANY, priority 2014, dated 2018)

Key:
Format in all cases: in vivo
[1] = test system: barnyardgrass (Echinochloa crus-galli); assay: Test D pre-/postemergence plant response; conditions: Postemergence; for Barnyardgrass plant response rating: scale 0 to 100 (0 no effect, 100 complete control); for Plant response rating, Barnyardgrass: scale 0 to 100, 0 no effect, 100 complete control
Outline: (§1)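 Test chemicals were formulated in a non-phytotoxic solvent mixture containing surfactant and applied either preemergence to seeds in loam–sand soil or postemergence to plants 2 to 18 cm tall (1- to 4-leaf stage). Response was rated visually against controls after 13 to 15 days, from 0 (none) to 100 (complete control).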

[2] = test system: blackgrass (Alopecurus myosuroides); assay: Test D pre-/postemergence plant response; conditions: Postemergence; for Blackgrass plant response rating: scale 0 to 100 (0 no effect, 100 complete control); for Plant response rating, Blackgrass: scale 0 to 100, 0 no effect, 100 complete control
Outline: as §1

[3] = test system: giant foxtail (Setaria faberii); assay: Test D pre-/postemergence plant response; conditions: Postemergence; for Foxtail, Giant plant response rating: scale 0 to 100 (0 no effect, 100 complete control); for Plant response rating, Foxtail, Giant: scale 0 to 100, 0 no effect, 100 complete control
Outline: as §1

[4] = test system: Italian ryegrass (Lolium multiflorum); assay: Test D pre-/postemergence plant response; conditions: Postemergence
Outline: as §1

[5] = test system: large (Lg) crabgrass (Digitaria sanguinalis); assay: Test D pre-/postemergence plant response; conditions: Postemergence; for Crabgrass, Large plant response rating: scale 0 to 100 (0 no effect, 100 complete control); for Plant response rating, Crabgrass, Large: scale 0 to 100, 0 no effect, 100 complete control
Outline: as §1

[6] = test system: velvetleaf (Abutilon theophrasti); assay: Test D pre-/postemergence plant response; conditions: Postemergence
Outline: as §1

[7] = test system: lambsquarters (Chenopodium album); assay: Test D pre-/postemergence plant response; conditions: Postemergence
Outline: as §1

soybean (Glycine max) = assay: Test D pre-/postemergence plant response; conditions: Postemergence
Outline: as §1

corn (Zea mays) = assay: Test D pre-/postemergence plant response; conditions: Postemergence; for Corn plant response rating: scale 0 to 100 (0 no effect, 100 complete control); for Plant response rating, Corn: scale 0 to 100, 0 no effect, 100 complete control
Outline: as §1

[8] = test system: morningglory (Ipomoea coccinea); assay: Test D pre-/postemergence plant response; conditions: Postemergence
Outline: as §1

[9] = test system: waterhemp (common waterhemp, Amaranthus rudis); assay: Test D pre-/postemergence plant response; conditions: Postemergence
Outline: as §1

[10] = test system: pigweed (Amaranthus retroflexus); assay: Test D pre-/postemergence plant response; conditions: Postemergence
Outline: as §1

[11] = test system: Italian ryegrass (Lolium multiflorum); assay: Test B pre-/postemergence plant response
Outline: (§2)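 Steps: plant seeds in loam soil–sand mix; spray soil preemergence, and in parallel spray 2–10 cm one- to two-leaf plants postemergence; hold ~10 days in greenhouse; visually rate injury against untreated controls (0 = no effect, 100 = complete control).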

kochia (Kochia scoparia) = assay: Test B pre-/postemergence plant response
Outline: as §2

[12] = test system: ragweed (common ragweed, Ambrosia elatior); assay: Test B pre-/postemergence plant response
Outline: as §2

[13] = 31 g ai/ha, scale 0 to 100 (0 no effect, 100 complete control)
[14] = 62 g ai/ha, scale 0 to 100, 0 no effect, 100 complete control
[15] = 125 g ai/ha, scale 0 to 100, 0 no effect, 100 complete control
[16] = 125 g ai/ha, postemergence, 0 to 100 scale, 0 no effect, 100 complete control
[17] = Postemergence, 500 g ai/ha, 0 to 100 scale (0 no effect, 100 complete control)
[18] = Preemergence, 125 g ai/ha, 0 to 100 scale (0 no effect, 100 complete control)
[19] = Preemergence, 500 g ai/ha, 0 to 100 scale where 0 is no effect and 100 is complete control
[20] = Postemergence, 1000 g ai/ha, 0 to 100 scale (0 no effect, 100 complete control)
[21] = Preemergence, 1000 g ai/ha, 0 to 100 scale (0 no effect, 100 complete control)

FC(F)(F)c1cc(-c2c(Cl)cccc2Oc2ncc(Cl)cn2)no1 [Compound 169]
30: Plant response rating, Velvetleaf [6, 15] | Plant response rating, Ragweed [12, 17]
90: Waterhemp plant response rating [9, 13] | Plant response rating, Waterhemp [9, 14] | Plant response rating, Waterhemp [9, 15] | Plant response rating, Kochia (kochia (Kochia scoparia); [16]) | Plant response rating, Kochia (kochia (Kochia scoparia); [17]) | Plant response rating, Kochia (kochia (Kochia scoparia); [19])
80: Plant response rating, Lambsquarters [7, 15] | Pigweed plant response rating [10, 13] | Plant response rating, Pigweed [10, 14]
10: Plant response rating, Crabgrass, Large ([5]; 62 g ai/ha) | Plant response rating, Crabgrass, Large ([5]; 125 g ai/ha) | Velvetleaf plant response rating [6, 13] | Plant response rating, Corn (corn (Zea mays); 62 g ai/ha) | Plant response rating, Corn (corn (Zea mays); 125 g ai/ha) | Ragweed plant response rating [12, 18]
50: Plant response rating, Ryegrass, Italian [11, 17]
0: Blackgrass plant response rating ([2]; 16 g ai/ha) | Blackgrass plant response rating ([2]; 31 g ai/ha) | Plant response rating, Blackgrass ([2]; 62 g ai/ha) | Foxtail, Giant plant response rating ([3]; 16 g ai/ha) | Ryegrass, Italian plant response rating [4, 13] | Corn plant response rating (corn (Zea mays); 16 g ai/ha) | Ryegrass, Italian plant response rating [11, 18]
98: Plant response rating, Pigweed [10, 15]
15: Plant response rating, Ryegrass, Italian [4, 15] | Plant response rating, Soybean (soybean (Glycine max); [14]) | Morningglory plant response rating [8, 13]
5: Barnyardgrass plant response rating ([1]; 16 g ai/ha) | Barnyardgrass plant response rating ([1]; 31 g ai/ha) | Plant response rating, Barnyardgrass ([1]; 62 g ai/ha) | Plant response rating, Barnyardgrass ([1]; 125 g ai/ha) | Foxtail, Giant plant response rating ([3]; 31 g ai/ha) | Plant response rating, Ryegrass, Italian [4, 14] | Crabgrass, Large plant response rating ([5]; 16 g ai/ha) | Crabgrass, Large plant response rating ([5]; 31 g ai/ha) | Soybean plant response rating (soybean (Glycine max); [13]) | Corn plant response rating (corn (Zea mays); 31 g ai/ha)
55: Plant response rating, Foxtail, Giant ([3]; 125 g ai/ha) | Plant response rating, Morningglory [8, 14]
35: Plant response rating, Lambsquarters [7, 14]
65: Plant response rating, Morningglory [8, 15]
70: Kochia plant response rating (kochia (Kochia scoparia); [18])
20: Plant response rating, Velvetleaf [6, 14] | Plant response rating, Ryegrass, Italian [11, 16] | Plant response rating, Ryegrass, Italian [11, 19] | Plant response rating, Ragweed [12, 16] | Plant response rating, Ragweed [12, 19]
40: Lambsquarters plant response rating [7, 13]
25: Plant response rating, Blackgrass ([2]; 125 g ai/ha) | Plant response rating, Foxtail, Giant ([3]; 62 g ai/ha) | Plant response rating, Soybean (soybean (Glycine max); [15])

FCc1cc(-c2c(Br)cccc2Oc2ncc(Cl)cn2)no1 [Compound 191]
85: Plant response rating, Lambsquarters [7, 15] | Plant response rating, Morningglory [8, 15]
0: Plant response rating (scale 0 to 100), Blackgrass ([2]; 16 g ai/ha) | Blackgrass plant response rating ([2]; 31 g ai/ha) | Plant response rating, Blackgrass ([2]; 62 g ai/ha) | Plant response rating (scale 0 to 100), Ryegrass, Italian ([4]; 16 g ai/ha) | Ryegrass, Italian plant response rating [4, 13] | Ryegrass, Italian plant response rating [4, 14]
75: Soybean plant response rating (soybean (Glycine max); [14])
60: Morningglory plant response rating [8, 14] | Waterhemp plant response rating [9, 13] | Plant response rating, Pigweed [10, 15]
35: Plant response rating (scale 0 to 100), Pigweed ([10]; 16 g ai/ha)
25: Plant response rating (scale 0 to 100), Waterhemp ([9]; 16 g ai/ha)
10: Plant response rating, Barnyardgrass ([1]; 125 g ai/ha) | Crabgrass, Large plant response rating ([5]; 31 g ai/ha) | Plant response rating, Crabgrass, Large ([5]; 62 g ai/ha) | Plant response rating, Corn (corn (Zea mays); 62 g ai/ha) | Plant response rating, Corn (corn (Zea mays); 125 g ai/ha)
65: Soybean plant response rating (soybean (Glycine max); [13]) | Plant response rating (scale 0 to 100), Morningglory ([8]; 16 g ai/ha) | Morningglory plant response rating [8, 13] | Plant response rating, Waterhemp [9, 15]
15: Plant response rating (scale 0 to 100), Velvetleaf ([6]; 16 g ai/ha)
90: Plant response rating, Ryegrass, Italian [11, 21] | Plant response rating, Ragweed [12, 20] | Plant response rating, Ragweed [12, 21]
30: Velvetleaf plant response rating [6, 13] | Velvetleaf plant response rating [6, 14] | Pigweed plant response rating [10, 13] | Pigweed plant response rating [10, 14]
20: Plant response rating, Crabgrass, Large ([5]; 125 g ai/ha)
100: Plant response rating, Ryegrass, Italian [11, 20] | Plant response rating, Kochia (kochia (Kochia scoparia); [20]) | Plant response rating, Kochia (kochia (Kochia scoparia); [21])
45: Plant response rating (scale 0 to 100), Soybean (soybean (Glycine max); 16 g ai/ha)
5: Plant response rating (scale 0 to 100), Barnyardgrass ([1]; 16 g ai/ha) | Barnyardgrass plant response rating ([1]; 31 g ai/ha) | Plant response rating, Barnyardgrass ([1]; 62 g ai/ha) | Plant response rating, Blackgrass ([2]; 125 g ai/ha) | Plant response rating (scale 0 to 100), Foxtail, Giant ([3]; 16 g ai/ha) | Foxtail, Giant plant response rating ([3]; 31 g ai/ha) | Plant response rating, Foxtail, Giant ([3]; 62 g ai/ha) | Plant response rating, Foxtail, Giant ([3]; 125 g ai/ha) | Plant response rating, Ryegrass, Italian [4, 15] | Plant response rating (scale 0 to 100), Crabgrass, Large ([5]; 16 g ai/ha) | Plant response rating (scale 0 to 100), Corn (corn (Zea mays); 16 g ai/ha) | Corn plant response rating (corn (Zea mays); 31 g ai/ha)
50: Plant response rating, Velvetleaf [6, 15] | Plant response rating (scale 0 to 100), Lambsquarters ([7]; 16 g ai/ha)
95: Plant response rating, Soybean (soybean (Glycine max); [15])
70: Lambsquarters plant response rating [7, 13] | Lambsquarters plant response rating [7, 14] | Waterhemp plant response rating [9, 14]
